# Laboratory results from ChEMBL document CHEMBL4715830, “Design, synthesis and biological evaluation of suramin-derived dual antagonists of the proinflammatory G protein-coupled receptors P2Y and GPR17” (Eur J Med Chem, 2020).
# Active and inactive are the calls of the source. The calls are words filed in the database; no cut-off is given here.
# Experiments:
# P2Y purinoceptor 6 = P2Y purinoceptor 6 (Rattus norvegicus, UniProt Q63371); assay: (§1) Antagonist activity at rat P2Y6 receptor expressed in human 1321N1 cells assessed as inhibition of UDP-induced intracellular calcium influx preincubated for 20 mins followed by UDP addition measured at 0.4 secs interval for 60 times by Oregon Green BAPTA-1/AM dye-based fluorescence assay; assay type: functional, cell-based
# P2Y purinoceptor 6, sequence (Q63371 whole entry): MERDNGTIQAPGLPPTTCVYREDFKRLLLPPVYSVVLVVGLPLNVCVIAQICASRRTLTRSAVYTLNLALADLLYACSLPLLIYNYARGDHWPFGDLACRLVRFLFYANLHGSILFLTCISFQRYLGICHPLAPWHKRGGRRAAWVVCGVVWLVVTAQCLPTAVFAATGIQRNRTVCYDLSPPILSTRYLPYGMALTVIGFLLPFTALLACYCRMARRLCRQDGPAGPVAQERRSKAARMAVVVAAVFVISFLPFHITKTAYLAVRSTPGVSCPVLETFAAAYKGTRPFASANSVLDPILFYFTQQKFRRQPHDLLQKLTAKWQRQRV
# [1] = target: P2Y purinoceptor 12 (Homo sapiens) (UniProt Q9H244); assay: Antagonist activity at recombinant human Gi/Go-coupled GP2Y12 receptor expressed in CHOK1 cells assessed as inhibition of 2-(Methylthio)ADP-induced inhibition of beta-arrestin recruitment at 10 uM by pathhunter assay; assay type: cell-based; settings: CHO-K1
# P2Y purinoceptor 12 (Homo sapiens), sequence (Q9H244 whole entry): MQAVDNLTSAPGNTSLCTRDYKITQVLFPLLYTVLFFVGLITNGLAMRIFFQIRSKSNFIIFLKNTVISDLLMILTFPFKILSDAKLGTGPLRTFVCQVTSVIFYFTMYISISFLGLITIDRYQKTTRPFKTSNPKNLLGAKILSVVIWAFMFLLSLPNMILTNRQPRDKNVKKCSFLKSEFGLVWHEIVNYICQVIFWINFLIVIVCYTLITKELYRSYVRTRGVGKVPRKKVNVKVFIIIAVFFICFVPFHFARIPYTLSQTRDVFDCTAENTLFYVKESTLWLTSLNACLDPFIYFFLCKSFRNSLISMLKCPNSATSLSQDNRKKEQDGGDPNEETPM
# [2] = target: P2Y purinoceptor 4 (Homo sapiens) (UniProt P51582); assay: as §1, with “human P2Y4” for “rat P2Y6”, “UTP-induced” for “UDP-induced”, “influx at 10 to 100 uM” for “influx”, “UTP” for “UDP”; assay type: functional, cell-based; settings: dose 10-100 µM
# P2Y purinoceptor 4 (Homo sapiens), sequence (P51582 whole entry): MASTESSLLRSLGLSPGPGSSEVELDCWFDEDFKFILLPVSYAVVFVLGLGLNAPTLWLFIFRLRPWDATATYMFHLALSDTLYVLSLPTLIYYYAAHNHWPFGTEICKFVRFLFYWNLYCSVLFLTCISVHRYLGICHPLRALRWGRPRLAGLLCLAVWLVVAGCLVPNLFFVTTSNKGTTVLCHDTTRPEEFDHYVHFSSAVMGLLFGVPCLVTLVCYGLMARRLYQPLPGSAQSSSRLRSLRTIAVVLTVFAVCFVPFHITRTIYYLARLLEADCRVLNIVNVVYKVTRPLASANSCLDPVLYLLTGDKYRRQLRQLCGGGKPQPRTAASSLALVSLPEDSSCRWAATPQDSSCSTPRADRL
# [3] = target: T1, P2Y purinoceptor 14 (Homo sapiens) (UniProt Q15391); assay: Antagonist activity at recombinant human Gi/Go-coupled GP2Y14 receptor expressed in CHOK1 cells assessed as inhibition of […]-induced inhibition of beta-arrestin recruitment at 10 uM by pathhunter assay; assay type: cell-based
# T1 sequence (whole entry): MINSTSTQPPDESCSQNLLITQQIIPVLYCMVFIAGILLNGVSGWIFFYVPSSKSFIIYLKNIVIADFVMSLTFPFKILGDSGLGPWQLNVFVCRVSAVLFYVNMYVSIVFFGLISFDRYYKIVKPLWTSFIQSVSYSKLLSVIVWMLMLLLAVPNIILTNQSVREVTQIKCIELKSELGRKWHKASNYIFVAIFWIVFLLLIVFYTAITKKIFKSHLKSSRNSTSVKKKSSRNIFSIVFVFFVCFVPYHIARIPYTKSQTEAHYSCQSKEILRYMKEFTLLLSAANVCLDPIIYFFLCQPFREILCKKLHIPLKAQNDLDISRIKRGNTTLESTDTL
# [4] = target: P2Y purinoceptor 1 (Homo sapiens) (UniProt P47900); assay: Antagonist activity at human P2Y1 receptor expressed in human 1321N1 cells assessed as inhibition of ADP-induced intracellular calcium influx at 10 uM preincubated for 20 mins followed by ADP addition measured at 0.4 secs interval for 60 times by Oregon Green BAPTA-1/AM dye-based fluorescence assay; assay type: functional, cell-based
# P2Y purinoceptor 1 (Homo sapiens), sequence (P47900 whole entry): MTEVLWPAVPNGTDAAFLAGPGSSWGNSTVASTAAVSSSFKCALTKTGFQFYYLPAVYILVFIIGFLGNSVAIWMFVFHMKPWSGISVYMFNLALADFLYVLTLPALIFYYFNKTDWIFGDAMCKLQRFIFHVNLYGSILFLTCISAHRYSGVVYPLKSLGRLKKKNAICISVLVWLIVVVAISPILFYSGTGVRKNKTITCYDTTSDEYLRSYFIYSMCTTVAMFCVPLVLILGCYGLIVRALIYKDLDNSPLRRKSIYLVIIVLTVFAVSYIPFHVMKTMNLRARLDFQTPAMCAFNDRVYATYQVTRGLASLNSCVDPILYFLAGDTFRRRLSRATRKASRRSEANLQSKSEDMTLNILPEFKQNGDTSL
# [5] = target: T2, Uracil nucleotide/cysteinyl leukotriene receptor (Homo sapiens, UniProt Q13304); assay: (§2) Antagonist activity at human GPR17 expressed in human 1321N1 cells assessed as inhibition of ATP-induced intracellular calcium influx preincubated for 20 mins followed by ATP addition measured at 0.4 secs interval for 60 times by Oregon Green BAPTA-1/AM dye-based fluorescence assay; assay type: functional, cell-based
# T2 sequence (Q13304 whole entry): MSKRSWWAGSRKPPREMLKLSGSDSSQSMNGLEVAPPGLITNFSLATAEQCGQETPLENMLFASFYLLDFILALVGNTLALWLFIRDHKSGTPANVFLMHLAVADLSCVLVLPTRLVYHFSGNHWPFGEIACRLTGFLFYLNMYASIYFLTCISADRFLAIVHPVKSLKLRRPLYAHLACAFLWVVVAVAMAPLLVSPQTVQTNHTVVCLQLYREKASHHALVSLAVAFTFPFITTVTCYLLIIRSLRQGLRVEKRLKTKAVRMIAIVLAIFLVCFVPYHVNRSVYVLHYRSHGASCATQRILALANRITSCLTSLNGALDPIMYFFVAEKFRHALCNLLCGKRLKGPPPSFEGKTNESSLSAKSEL
# P2Y purinoceptor 2 = P2Y purinoceptor 2 (Homo sapiens, UniProt P41231); assay: Antagonist activity at human P2Y2 receptor expressed in human 1321N1 cells assessed as inhibition of ATP-induced intracellular calcium influx preincubated for 20 mins followed by ATP addition measured at 0.4 secs interval for 60 times by Oregon Green BAPTA-1/AM dye-based fluorescence assay; assay type: functional, cell-based
# P2Y purinoceptor 2, sequence (P41231 whole entry): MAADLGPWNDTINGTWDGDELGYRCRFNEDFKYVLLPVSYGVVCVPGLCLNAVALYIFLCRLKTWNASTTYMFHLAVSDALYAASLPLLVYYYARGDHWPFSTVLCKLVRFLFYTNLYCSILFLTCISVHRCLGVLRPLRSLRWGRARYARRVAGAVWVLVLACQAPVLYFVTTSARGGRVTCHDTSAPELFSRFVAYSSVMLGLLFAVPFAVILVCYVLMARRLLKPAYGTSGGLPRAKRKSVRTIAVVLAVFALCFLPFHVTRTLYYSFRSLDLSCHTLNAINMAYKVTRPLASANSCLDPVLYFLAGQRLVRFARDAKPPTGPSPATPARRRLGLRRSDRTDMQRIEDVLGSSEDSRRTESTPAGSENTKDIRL
# [6] = target: T2, Uracil nucleotide/cysteinyl leukotriene receptor; assay: as §2, with “influx at 10 uM” for “influx”, “assay relative to control” for “assay”; assay type: functional, cell-based
# [7] = Chemical stability of compound in pH 7 MeOH/water solution measured after 24 hrs by HPLC-MS analysis; assay type: physicochemical; settings: buffer, pH 7, 24 h
# [8] = Chemical stability of compound in pH 7 MeOH/water solution at 70 degC measured after 24 hrs by HPLC-MS analysis; assay type: physicochemical; settings: buffer, pH 7, 24 h
# [9] = Chemical stability of compound in pH 3 MeOH/water solution measured after 24 hrs by HPLC-MS analysis; assay type: physicochemical; settings: buffer, pH 3, 24 h
# [10] = Drug metabolism in pH 9 MeOH/water solution assessed as methyl 4-(2-chlorobenzamido)benzenesulfonate formation measured after 24 hrs by HPLC-MS analysis
# [11] = target: P2Y purinoceptor 6 (Rattus norvegicus) (UniProt Q63371); assay: as §1, with “influx at 10 to 100 uM” for “influx”; assay type: functional, cell-based; settings: dose 10-100 µM
# P2Y purinoceptor 6 (Rattus norvegicus), sequence (Q63371 whole entry): as the sequence (Q63371 whole entry) above
SMILES,IC50 (P2Y purinoceptor 6) [µM],inhibition [1],inhibition [2],inhibition [3],inhibition [4],IC50 [5] [µM],IC50 (P2Y purinoceptor 2) [µM],inhibition [6] [%],Stabilty [7],Stabilty [8],Stabilty [9],Drug metabolism [10] [%],inhibition [11]
Cc1cccc(C(=O)Nc2ccc(S(=O)(=O)Oc3cccc([N+](=O)[O-])c3)cc2)c1,6.19,inactive,inactive,inactive,inactive,–,–,–,–,–,–,–,–
Cc1ccc(C(=O)Nc2ccc(S(=O)(=O)O)c3cc(S(=O)(=O)O)cc(S(=O)(=O)O)c23)cc1NC(=O)c1cccc(NC(=O)Nc2cccc(C(=O)Nc3cc(C(=O)Nc4ccc(S(=O)(=O)O)c5cc(S(=O)(=O)O)cc(S(=O)(=O)O)c45)ccc3C)c2)c1 [SURAMIN HEXASODIUM],–,–,–,–,–,> 100,> 100,33,–,–,–,–,–
O=C(Nc1ccc(S(=O)(=O)Oc2cccc([N+](=O)[O-])c2)cc1)c1ccccc1Cl,–,inactive,inactive,inactive,inactive,–,–,–,Stable,Stable,Stable,1.4,inactive
O=C(Nc1ccc(S(=O)(=O)Oc2cccc([N+](=O)[O-])c2)cc1)c1cccc(F)c1,–,inactive,inactive,inactive,inactive,–,–,–,–,–,–,–,inactive
Cc1cccc(C(=O)Nc2ccc(S(=O)(=O)Nc3cccc([N+](=O)[O-])c3)cc2)c1,–,inactive,inactive,inactive,inactive,–,–,–,–,–,–,–,inactive
O=C(Nc1ccc(S(=O)(=O)Oc2cccc([N+](=O)[O-])c2)cc1)c1ccc(Cl)cc1,–,inactive,inactive,inactive,inactive,–,–,–,–,–,–,–,inactive
Cc1cccc(C(=O)Nc2cccc(NC(=O)c3cccc([N+](=O)[O-])c3)c2)c1,–,inactive,inactive,inactive,inactive,–,–,–,–,–,–,–,inactive
Cc1cccc(C(=O)Nc2ccc(NC(=O)Nc3cccc(C(=O)O)c3)cc2)c1,–,inactive,inactive,inactive,inactive,–,–,–,–,–,–,–,inactive
